Source: a melting point compilation (Tetko et al.; mined from patent text by program, amines drawn as free bases though some values may be those of a salt)

With `COC(=O)[C@H](COC(C)(C)C)NC(=O)[C@@H](NC(=O)[C@H](Cc1ccccc1)NC(=O)[C@@H](NC(=O)OCc1ccccc1)[C@@H](C)OC(C)(C)C)[C@@H](C)OC(C)(C)C` the melting point was 114 to 115 °C.
Compound `COc1cc2nc3ccccc3sc-2c(OC)c1=O` has a melting point of 193 °C.
Compound `CCOC(=O)C=CC(=O)c1ccc(-c2ccc(F)cc2)cc1` has a melting point of 115 to 117 °C.
With `OC(CNc1ccc2ncnn2n1)CN1CCC(OC(c2ccccc2)c2ccccc2)CC1` (stereo unspecified) the melting point was 82 to 87 °C.
`CC(C)Oc1cc(CCCOc2ccc3ccccc3c2CC(=O)O)n(Cc2ccc(Cl)cc2Cl)n1` showed a melting point of 120 to 122 °C.
`CCOP(=O)(OCC)c1ccc(NC(=O)C2Cc3c(cccc3C(C)C)C(=O)CS2(=O)=O)cc1` (stereo unspecified) gave a melting point of 229 to 230 °C.
In the case of `N#Cc1ccc2nc3c(c(=O)n2c1)CSC3`, the melting point is reported as 256 to 257 °C.
Work on `CCCCCCCCCCCCc1ccc(CO)cc1` yielded a melting point of 44 to 45 °C.
For `COc1cc(C(=O)CBr)cc(Cl)c1OC`, the melting point was 76.5 to 78 °C.
In the case of `CC(=O)Nc1nc(CCc2ccc(NC(=N)NN)cc2)cs1`, the melting point is reported as 216 to 218 °C.
`N#Cc1ccc(OCc2ccsc2)cc1OC(C(=O)O)c1cccc(Cl)c1` (racemic) gave a melting point of 134 to 136 °C.
For `Cc1cccc(C(O)CNC2=NCCN2)c1` (stereo unspecified), the melting point was 121 °C.
`COC(=O)c1c(C(=O)OC)c(-c2ccccc2)n2c1Cc1ccccc1-2` showed a melting point of 149 to 151 °C.
`CCCCc1ncc(C=C2C(=O)NC(=O)N2Cc2ccc(Cl)cc2)n1Cc1ccc(C(=O)O)cc1` gave a melting point of 225 to 227 °C.
In the case of `CCOC(=O)C[C@H]1O[C@H](c2ccc(O)cc2OC)c2cc(Cl)ccc2N(CC(C)(C)C)C1=O` (relative stereo), the melting point is reported as 197 to 199 °C.
For `CC(C)(C)OC(=O)N(Cc1ccccc1)C1(CO)CC1`, the melting point was 68 °C.
Work on `COC(=O)Cc1ccc(CNC(=O)C2Cc3c(OC)cccc3N2S(=O)(=O)c2ccc(-c3cccc(C(F)(F)F)c3)cc2)cc1` (stereo unspecified) yielded a melting point of 80 °C.
For `COc1ccc2c(=O)c(S(C)(=O)=O)cn(C)c2c1`, the melting point was 212 to 214 °C.
With `N#CCCN1CCC2C(C1)c1ccccc1N2c1ccccc1` (stereo unspecified) the melting point was 108 °C.
In the case of `CCOCCOc1cc(C)c(-c2cccc(COc3ccc(C=CC(=O)OC)cc3)c2)c(C)c1`, the melting point is reported as 69 °C.
Compound `O=C(c1ccccc1)N1CCC(CCl)CC1` has a melting point of 68 to 70 °C.
With `O=C(NOCCO)c1cc(F)c(F)c(F)c1Nc1ccc(I)cc1Cl` the melting point was 183 to 184 °C.
For `O=C(CC(=O)c1snc(Cl)c1Cl)c1ccc(O)cc1`, the melting point was 224 to 227 °C.
`NC1([C@@H]2CCN(c3cc4c(cc3F)c(=O)c(C(=O)O)cn4[C@@H]3C[C@@H]3F)C2)CC1` gave a melting point of 240 to 242 °C.
With `COc1cnc(CS(C)(=O)=O)nc1OC(=O)NN1CCOCC1` the melting point was 138 °C.
For `N=C(NN=Cc1ccc(OC(F)(F)C(F)F)cc1)NN=Cc1ccc(C(F)(F)F)cc1`, the melting point was 132 to 137 °C.
`CCCCN1CCC(O)(c2cccc(C(F)(F)F)c2F)CC1` showed a melting point of 138 °C.
For `Nc1sc(-c2ccoc2)c(CN(C2CCCCC2)C2CCCCC2)c1C(=O)c1ccc(Cl)cc1`, the melting point was 132 to 135 °C.
With `COc1ccc(CCc2cccc(C(=O)Nc3ccc(Cl)cc3)c2O)cc1` the melting point was 141 °C.
For `O=C(Nc1cccc(C(F)(F)F)c1)Nc1nccnc1C(=O)O`, the melting point was > 300 °C.
For `O=C(N1CC(CCl)c2c1ccc1ccc(S(=O)(=O)N(Cc3ccccc3)Cc3ccccc3)cc21)C(F)(F)F` (stereo unspecified), the melting point was 119 to 121 °C.
`COC(c1ccccc1Cl)c1cc(Cl)ccc1-c1c(C(=O)O)cnn1C` (stereo unspecified) showed a melting point of 210 to 213 °C.
For `CC1N=CC=C(CS)C1(O)CC(=O)O` (stereo unspecified), the melting point was 185 to 187 °C.
Compound `CC1=C(c2ccc(Cl)cc2)n2ncc(C(N)=O)c2NC1` has a melting point of 210 to 212 °C.
With `Cc1cc2ncccc2[nH]1` the melting point was 193 to 195 °C.
Work on `OCCCCc1cc(-c2ccc(C(F)(F)F)cc2)no1` yielded a melting point of 68 to 69 °C.
With `N#Cc1nccn1Cc1cccs1` the melting point was 64 to 65 °C.
`CCOC(=O)c1ncc2[nH]c3ccc(Oc4ccc(Br)cn4)cc3c2c1COC` gave a melting point of 210 to 212 °C.
For `Cc1ccc(C)n1-c1cc2c(cc1C(F)(F)F)[nH]c(=O)c(=O)n2CC(=O)O`, the melting point was > 270 °C.
For `C=CCN1CCCNC1=C[N+](=O)[O-]`, the melting point was 125 to 126 °C.
`O=[N+]([O-])CC(SC(=S)N1CCCC1)c1ccccc1` (stereo unspecified) gave a melting point of 116 to 120 °C.
In the case of `CCOC(C)n1c(Cl)c(Cl)c(C#N)c1-c1ccc(Cl)c(Cl)c1` (stereo unspecified), the melting point is reported as 124 to 126 °C.
`CC(=O)SC(CC(=O)c1ccc(Oc2ccc(C(C)C)cc2)cc1)C(=O)O` (stereo unspecified) gave a melting point of 110 to 112 °C.
With `CONS(=O)(=O)c1c(C)nn(C)c1Cl` the melting point was 120 to 122 °C.
Compound `NC(=O)CNC(=O)c1cccc(-c2ccc(F)c3cc(Cc4cc(F)cc(Cl)c4)sc23)c1` has a melting point of 166 to 167 °C.
For `COC(=O)C=Cc1ccc(C(=O)Nc2ccncc2)cc1`, the melting point was 209 to 211 °C.
Compound `O=C(O)c1cccc2oc(-c3ccccc3OCc3ccccc3)nc12` has a melting point of 103 to 104 °C.
For `Cn1nnc2ccc(C(c3cccs3)n3ccnc3)cc21` (stereo unspecified), the melting point was 157 °C.
`CCN(CC)CCNC(=O)c1c(I)ccc2cc3ccccc3nc12` gave a melting point of 81 to 83 °C.
Work on `CNC(=S)N1CC(c2ccccc2)C(c2ccc(Cl)cc2)=N1` (stereo unspecified) yielded a melting point of 181 to 183 °C.
`COC(=O)C(=C/c1cc(OC)c(OC)c(OC)c1)/C(C(N)=O)=C(/C)c1ccccc1` showed a melting point of 141 to 143 °C.
`O=C(Oc1cccc2sc(-c3ccc(OCCN4CCCC4)cc3)c(C(=O)c3ccc(F)cc3)c12)c1ccc(F)cc1` gave a melting point of 58 to 63 °C.
`Cc1cccc(NC(=O)NCC(=O)N(CC(=O)OC(C)(C)C)c2ccccc2Oc2ccccc2)c1` gave a melting point of 204 °C.
`O=[N+]([O-])c1cccnc1Nc1ccc(F)cc1F` showed a melting point of 110 °C.
`O=C1Nc2c(Cl)cc(Cl)c3cccc1c23` gave a melting point of 265 °C.
`C#Cc1cc(C)c(Oc2ccc([N+](=O)[O-])c(Nc3ccc(C#N)cc3)n2)c(C)c1` gave a melting point of 186 to 188 °C.
`CC(C)CN(C)c1cc2c(cc1C#N)NC(=O)CC(c1cccc(-n3nncc3CN3CCCC3)c1)=N2` showed a melting point of 174 °C.
Work on `O=C(c1ccc(O)cc1)c1c(-c2ccccc2)cc2ccccn12` yielded a melting point of 179 °C.
`Cc1c(NC(=O)c2ccc(OC[C@@H]3CCCO3)cc2F)ccc2cc(CNCC(C)(C)O)n(C)c12` gave a melting point of 132 to 133 °C.
With `COc1ccc(C(=O)COc2ccc(NC3=NCCN3)cc2)cc1` the melting point was 65.5 to 69 °C.
`N#CCN1C(=O)COc2ccc([N+](=O)[O-])cc21` gave a melting point of 173 °C.
For `CCOC(=O)C1=C(C)NC(=S)N(C(=O)OCC)C1c1ccccc1C(F)(F)F` (stereo unspecified), the melting point was 106 to 108 °C.
For `CCC(O)CP(=O)(O)CCCN` (stereo unspecified), the melting point was 184 to 185 °C.
With `N#CC1=C(C2CC2)Nc2n[nH]cc2C1c1cccc2nocc12` (stereo unspecified) the melting point was 248 °C.
In the case of `O=C1N(Cc2noc(C(F)(F)F)n2)c2ccccc2C12COc1cc3c(cc12)OCCO3` (stereo unspecified), the melting point is reported as 159 to 160 °C.
For `c1ccc2cc(Cc3ncc(-c4ccc5cc(OCc6nnn[nH]6)ccc5c4)o3)ccc2c1`, the melting point was 179 to 182 °C.
`CCCCCC(=O)n1c(N)nc2ccccc21` showed a melting point of 200 °C.
Compound `O=C(CCCC(=O)N1C(=O)OC[C@@H]1c1ccccc1)c1ccc(F)cc1` has a melting point of 91 °C.
`COc1ccc(-c2ccc3c(C#N)c(OC)ccc3c2)cc1` gave a melting point of 182 to 185 °C.
`COC(=O)N[C@@H]1CCc2ccc(Br)cc2C1` gave a melting point of 99 to 100 °C.
In the case of `O=c1c2c(Cl)cc(Cl)cc2n(Cc2ccccc2)c(=O)n1Cc1ccccc1Br`, the melting point is reported as 129 to 132 °C.
Compound `Cc1ccc(NC(=O)Nc2ccc(-c3c(Cc4ccccc4)sc4ncnc(N)c34)cc2)cc1` has a melting point of 169 to 173 °C.
For `CC(C(=O)CCl)c1cccc(C(=O)c2ccccc2)c1` (stereo unspecified), the melting point was 60 °C.
`O=C(Nc1ccc(Oc2ccc(Cl)cc2Cl)nc1)N1CCc2ccccc2CC1` showed a melting point of 154 to 155 °C.
`Nc1c(Cl)cc(C(O)CNCCCCCCOCCCCc2ncccn2)cc1Cl` (stereo unspecified) gave a melting point of 77 to 79 °C.
In the case of `Cc1ccnc(C=NNC(N)=S)c1N`, the melting point is reported as 227 to 228 °C.
Work on `CCCc1nc(C=O)c(C)[nH]1` yielded a melting point of 126 to 129 °C.
Compound `CN1C(=O)CN=C(c2ccccc2F)c2cc(NC(=O)NC(C)(C)C)ccc21` has a melting point of 210 °C.
For `N#CCc1nn2c(-c3cccc(C(F)(F)F)c3)ccnc2c1C#N`, the melting point was 180 to 181 °C.
For `CC1(C)COC(C=Cc2ccc([N+](=O)[O-])cc2)OC1`, the melting point was 86.5 to 88.5 °C.
With `N=C(Nc1ccc(Cl)cc1)Nc1ncccc1OCc1c(F)cccc1F` the melting point was 146 to 148 °C.
Compound `Cc1ccc(C=CC(=O)C2CC2)cc1` has a melting point of 75 to 76 °C.
`COc1ccccc1-c1nc2nc(SC)nnc2c(=O)[nH]1` gave a melting point of 268 °C.
For `Cn1c(NC(=O)OCc2ccccc2)c(-c2ccccc2)c2cc(Cl)ccc21`, the melting point was 164 °C.
`CCCc1c(C(=O)N(C)Cc2ccc3c(Br)c(OCc4nnn[nH]4)ccc3c2)cnn1-c1ccccc1` showed a melting point of 75 to 85 °C.
Work on `COc1cc(C2=NCCO2)cc(OC)c1C(C)=O` yielded a melting point of 135 to 137 °C.
For `CC(=O)OCC1OC(n2cnc(C#N)n2)C(OC(C)=O)C1OC(C)=O` (stereo unspecified), the melting point was 96 to 97 °C.
For `Cc1csc(-c2nc(-c3ccc(=O)n(C(C)C)n3)c(-c3ccccc3)nc2N)n1`, the melting point was 238 to 240 °C.
Compound `COc1cc(CNC(=O)c2ccccc2)cc(OC)c1OC` has a melting point of 113 to 115 °C.
Work on `O=c1[nH]c2ccc(F)cc2c(=O)n1CCS` yielded a melting point of 240 to 242 °C.
Compound `O=[N+]([O-])c1c(F)c(F)c(O)c(Cl)c1F` has a melting point of 107 to 109 °C.
`NNC1=Nc2sc(Cl)cc2C(c2ccccc2)=NC1` gave a melting point of 204 to 207 °C.
With `CCCCCCCCCCCCOc1cc(C#N)c(C#N)cc1OCCOCCOCCOC` the melting point was 38 to 40 °C.
Work on `C1=C(c2ccc3ccccc3c2)CCN(Cc2c[nH]c3ncccc23)C1` yielded a melting point of 223 to 225 °C.
With `CCN(CC)C(=O)c1ccoc1-c1ccc(C=O)cc1` the melting point was 64 to 66 °C.
In the case of `O=c1[nH]c(=O)c2ccsc2[nH]1`, the melting point is reported as > 300 °C.
Compound `CCC(=O)C1C(=O)CC(c2ccc(C3CC(=O)C(C(=O)CC)C(=O)C3)cc2)CC1=O` (stereo unspecified) has a melting point of 261 °C.
Work on `CC(C)(F)[C@H]1C(=O)N[C@@H]1CC(=O)O` (racemic) yielded a melting point of 118 to 122 °C.
Compound `CCCCCCCCc1ccc(C(=O)Cc2cccc(C(=O)O)c2)cc1` has a melting point of 103 to 110 °C.
Work on `CCOc1ccc(S(=O)(=O)N(CCO)c2ccccc2/C=C/c2ccncc2)cc1` yielded a melting point of 167 to 169 °C.
With `CCCn1cc(Cc2ccc(C(=O)O)cc2OC)c2cc(CCNC(=O)N3CCOCC3)ccc21` the melting point was 105 to 113 °C.
